One test relates to melon powdery mildew. The experiment in a line: Control effect against melon powdery mildew. Conditions: 4000-fold-diluted concentration (control chemicals).
The subject of a further test is cucumber powdery mildew. The experiment in a line: Control effect against cucumber powdery mildew. The settings on record: 4000-fold-diluted concentration (control chemical).

Excerpt for cucumber powdery mildew: Also, Trifumin® (Triflumizole) was used at a 4000-fold-diluted concentration, a recommended concentration for farmhouses.
Excerpt for melon powdery mildew: The bacteria culture was spread to melons with a powdery mildew incidence of about 10% under greenhouse conditions three times at one-week intervals, and after 7 days, the results were examined.
Trifumin® and Fenari® (Fenarimol) were used at a 4000-fold-diluted concentration, a recommended concentration for farmhouses.
The number of leaves with melon powdery mildew was counted before and after treatment so as to yield therapeutic effects.

Turning to `OC(c1ccc(Cl)cc1)(c1cncnc1)c1ccccc1Cl` (stereo not drawn) [Fenari ® (Fenarimol), Fenarimol], in the test with melon powdery mildew, the “Number of infected leaves before treatment/number of infected leaves after treatment” value is on record as 9/6 and the Therapeutic effect is 33.4.

Consider `CCCOC/C(=N\c1ccc(Cl)cc1C(F)(F)F)n1ccnc1` [Trifumin ® (Triflumizole), Triflumizole], for which, in the test with melon powdery mildew, the “Number of infected leaves before treatment/number of infected leaves after treatment” value is on record as 10/0 and the Therapeutic effect was found to be 100. Further, in the test on cucumber powdery mildew, the “Control effect (%)” value is 96.59% and the “Incidence (%)” value was determined as 3.41%.

For the origin of these results see patent US7615366B2, “Bacillus amyloliquefaciens KTGB0202 and control method of plant pathogenic fungi using that” (KT & G Co., Ltd., priority 2003, dated 2009).
